The results in this text go back to patent US20080159962A1, “Use of Inhibitors of the Renin-Angiotensin System for the Treatment of Lung Injuries” (priority 2005, published 2008).

What all share (format): in vivo
Experiment [1] deals with T1, AT1R (Mus musculus, UniProt P29754). The experiment in a line: AT1R inhibitor study in acid-induced ALI of ace2 KO mice. The note with it: acid-treated ace2 KO mice. The protocol:
(§1) Experimental murine ALI models: For acid aspiration-induced ALI, 2.5-3 month old mice were anaesthetized with ketamin (75 mg/kg) and xylazine (20 mg/kg) i.p., tracheostomized and ventilated with a volume control constant flow ventilator (Voltek Enterprises, Canada). Volume recruitment manoeuvre (VRM) (25 cmH2O, 3 sec) was performed to standardize volume history and measurements were made as baseline. After intratracheal instillation of HCl (pH=1.5; 2 ml/kg), followed by a VRM (35 cmH2O, 3 seconds), animals were ventilated for 3 hrs (FIO2 1.0). Saline-treated groups served as controls. […] All animals were monitored throughout an 18-hrs recovery period. […] In all experimental ALI models, total PEEP (PEEPt) and plateau pressure (Pplat) were measured at the end of expiratory and inspiratory occlusion, respectively, and elastance was calculated as Pplat minus PEEPt)/VT every 30 minutes during the ventilation periods. […]
Assessment of blood oxygenation, pulmonary oedema, and pulmonary vascular permeability: At the end of the experiments, blood samples were obtained from the left heart ventricle and PaO2 was measured (Ciba-Corning Model 248, Bayer, Leverkusen, Germany) to assess arterial blood oxygenation as an indicator for respiratory failure. To assess pulmonary oedemas, the lung wet/dry weight ratios were calculated. […]

For experiment [2], the target named is T1, AT1R.
The next experiment concerns the target T2, AT2R (Mus musculus, UniProt P35374).
T2 construct: from tissue; host or cells: live ace2 KO mice, lung elastance read-out
T2 sequence (P35374 1-363): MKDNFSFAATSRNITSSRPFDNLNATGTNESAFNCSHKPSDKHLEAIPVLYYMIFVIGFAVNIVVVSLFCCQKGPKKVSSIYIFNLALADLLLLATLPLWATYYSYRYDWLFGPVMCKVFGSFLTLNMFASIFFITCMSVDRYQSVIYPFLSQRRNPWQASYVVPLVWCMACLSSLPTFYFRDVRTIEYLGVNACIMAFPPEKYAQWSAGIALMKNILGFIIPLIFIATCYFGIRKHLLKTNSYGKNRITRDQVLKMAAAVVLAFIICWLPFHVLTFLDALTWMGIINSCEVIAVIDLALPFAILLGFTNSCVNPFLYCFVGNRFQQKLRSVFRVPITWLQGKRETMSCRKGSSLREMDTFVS
The experiment in a line: AT2R inhibitor study in acid-induced ALI of ace2 KO mice. The note with it: acid-treated ace2 KO mice, 15 mg/kg i.p., 3 hrs (FIG. 10b). As for the experimental part: as §1
AT1R/AT2R inhibitor studies: Mice (2.5-3 months old) received the AT1R inhibitor Losartan (15 mg/kg), the AT2R inhibitor PD123.319 (15 mg/kg), or control vehicle i.p. 30 min before surgical procedures. […] Animals were then ventilated for 3 hrs and analyzed as above.

The target in a further experiment is T3, BK2 (Mus musculus, UniProt P32299).
T3 construct: from tissue; host or cells: live ace2 KO mice, lung elastance read-out
T3 sequence (P32299 1-392): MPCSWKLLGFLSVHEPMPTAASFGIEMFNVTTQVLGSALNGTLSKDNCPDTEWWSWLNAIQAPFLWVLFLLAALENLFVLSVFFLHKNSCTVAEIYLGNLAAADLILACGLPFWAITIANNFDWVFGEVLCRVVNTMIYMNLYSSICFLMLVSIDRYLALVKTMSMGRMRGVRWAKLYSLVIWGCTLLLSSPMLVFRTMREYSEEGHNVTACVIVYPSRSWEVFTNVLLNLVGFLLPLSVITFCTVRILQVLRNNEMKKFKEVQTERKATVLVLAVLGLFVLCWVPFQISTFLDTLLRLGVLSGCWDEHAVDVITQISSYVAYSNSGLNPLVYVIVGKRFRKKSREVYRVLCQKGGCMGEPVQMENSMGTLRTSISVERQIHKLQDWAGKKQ
The experiment in a line: Bradykinin receptor inhibitor study (BK2) in acid aspiration-induced ALI of ace2 KO mice. The note with it: acid-treated ace2 KO mice, 1.5 mg/kg i.p. 30 min before surgical procedures, 3 hrs (FIG. 17). The protocol:
Murine acid aspiration-induced lung injury model: For acid aspiration-induced ALI, 2.5-3 month old mice were anaesthetized with ketamin (75 mg/kg) and xylazine (20 mg/kg) i.p., tracheostomized and ventilated with a volume control constant flow ventilator (Voltek Enterprises). Volume recruitment manoeuvre (VRM) (25 cmH2O, 3 sec) was performed to standardize volume history and measurements were made as baseline. After intratracheal instillation of HCl (pH=1.5; 2 ml/kg), followed by a VRM (35 cmH2O, 3 seconds), animals were ventilated for 3 hrs (FIO2 1.0). Total PEEP (PEEPt) and plateau pressure (Pplat) were measured at the end of expiratory and inspiratory occlusion, respectively, and elastance was calculated as Pplat minus PEEPt)/VT every 30 minutes during the ventilation periods.
Bradykinin receptors inhibitor studies: Ace2 KO mice (2.5-3 months old) received the BK1 inhibitor (des Arg HOE, Sigma, 1.5 mg/kg), the BK2 inhibitor (HOE 140, Sigma, 1.5 mg/kg), or control vehicle i.p. 30 min before surgical procedures. After HCl instillation, animals were randomized into groups: (1) ace2 KO, acid, vehicle control; (2) ace2 KO, acid, BK1 inhibitor; (3) ace2 KO, acid, BK2 inhibitor. Animals were then ventilated for 3 hrs and analyzed as above.

Read-outs that look alike come from different tables or passages of the source.

T1 sequence (P29754 whole entry): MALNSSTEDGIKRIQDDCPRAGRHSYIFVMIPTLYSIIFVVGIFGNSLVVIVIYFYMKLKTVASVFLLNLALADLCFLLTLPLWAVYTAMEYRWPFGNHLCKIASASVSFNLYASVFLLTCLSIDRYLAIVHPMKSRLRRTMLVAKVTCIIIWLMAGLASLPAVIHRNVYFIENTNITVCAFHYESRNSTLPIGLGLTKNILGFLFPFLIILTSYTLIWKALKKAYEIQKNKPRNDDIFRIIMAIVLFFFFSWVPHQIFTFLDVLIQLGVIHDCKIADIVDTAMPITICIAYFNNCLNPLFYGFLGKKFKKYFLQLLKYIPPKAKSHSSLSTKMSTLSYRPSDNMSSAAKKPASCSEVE

With `CCCCc1nc(Cl)c(CO)n1Cc1ccc(-c2ccccc2-c2nn[nH]n2)cc1` [Losartan], the “severity of ALI (lung elastance)” value on AT1R [1] (15 mg/kg i.p. 30 min before surgical procedures, 3 hrs (FIG. 10b)) is “attenuated the severity of ALI”. The “acid-induced pulmonary oedema (wet to dry weight ratio)” value at AT1R [1] (15 mg/kg, 3 hrs (FIG. 16b)) is listed as “attenuated acid-induced pulmonary oedema”. Further, the “acute severe lung injury (lung elastance)” value on AT1R [2] (acid plus Spike-Fc challenged WT mice, 15 mg/kg (FIG. 5c)) was “attenuates SARS Spike-mediated severe acute lung injury”. On AT1R [2] (mouse, in vivo), the “acute severe lung injury (lung elastance)” value is given as “attenuated acute severe lung injury” and the “pulmonary oedema (wet to dry weight ratio)” value is “attenuated pulmonary oedema”.
On to `Cc1cc(Cn2cnc3c2C[C@@H](C(=O)O)N(C(=O)C(c2ccccc2)c2ccccc2)C3)ccc1N(C)C` [PD123.319], for which the “severe acute lung injury phenotypes (lung elastance)” value at AT2R was “had no apparent effect”.
Consider `NC(N)=NCCC[C@@H](N)C(=O)N[C@@H](CCCN=C(N)N)C(=O)N1CCC[C@H]1C(=O)N1C[C@H](O)C[C@H]1C(=O)NCC(=O)N[C@@H](Cc1cccs1)C(=O)N[C@@H](CO)C(=O)N1Cc2ccccc2C[C@@H]1C(=O)N1[C@H](C(=O)N[C@@H](CCCN=C(N)N)C(=O)O)C[C@@H]2CCCC[C@@H]21` [BK2 inhibitor, DArg[Hyp^3,Thi^5,DTic^7,Oic^8]-bradykinin], for which, on BK2, the “lung failure assessed by pulmonary elastance” value is listed as “improved the lung failure”.
